From EP0453247A2, “Anti-viral compounds” (THE WELLCOME FOUNDATION LIMITED, priority 1990, dated 1991)

Legend:
VZV = VZV plaque reduction assay; assay type: cell-based; settings: Human alphaherpesvirus 3; plaque reduction in monolayers of MRC5 or Detroit 532 cells; read-out: VZV 1C50
Experimental: Antiviral testing against VZV was determined by measuring the ability of the compound to reverse the cytophathic effect of VZV infection.
VZV is assayed in monolayers of either MRC5 cells (human embryonic lung) or Detroit 532 cells (human foreskin fibroblasts) in multiwell trays. Activity of compounds is determined in the plaque reduction assay, in which a cell monolayer is infected with a suspension of VZV. Plaque numbers of each concentration are expressed as percentage of the control and a dose-response curve is drawn. From this curve the 50% inhibitory concentration (IC₅₀) is estimated.

[1] = Cell growth inhibition assay (MTT uptake); assay type: cell-based; settings: monkey, Vero cells, 50% inhibition of cell viability at 96 hours, read-out: Toxicity CCID50(Vero)
Experimental: Cell toxicity is assessed in a cell growth inhibition assay. Subconfluent cultures of Vero cells grown on 96-well microtiter dishes are exposed to different dilutions of drug, and cell viability determined daily on replicate cultures using uptake of a tetrazolium dye (MTT). The concentration required for a 50% inhibition of cell vaibility at 96 hours is termed CCID₅₀.

Compound	IC50 (VZV)	CC50 at 96 h [1]
CC#Cc1cn([C@@H]2O[C@H](CO)[C@@H](O)[C@H]2F)c(=O)nc1N [2'-Deoxy-2'-fluoro-5-prop-1-ynylcytidine, 2′-Deoxy-2′-fluoro-5-prop-1-ynylcytidine]	2300 nM	> 500 µM
CC#Cc1cn([C@@H]2O[C@H](CO)[C@@H](O)[C@H]2F)c(=O)[nH]c1=O [2'-Deoxy-2'-fluoro-5-prop-1-ynyluridine, 2′-Deoxy-2′-fluoro-5-prop-1-ynyluridine]	2600 nM	> 500 µM
C#Cc1cn([C@@H]2O[C@H](CO)[C@@H](O)[C@H]2F)c(=O)nc1N [2'-Deoxy-5-ethynyl-2'-fluorocytidine, 2′-Deoxy-5-ethynyl-2′fluorocytidine]	5300 nM	> 500 µM
C#Cc1cn([C@@H]2O[C@H](CO)[C@@H](O)[C@H]2F)c(=O)[nH]c1=O [2'-Deoxy-5-ethynyl-2'-fluorouridine, 2′-Deoxy-5-ethynyl-2′-fluoro uridine]	2160 nM	156 µM
